# Assay results: the supplement of paper PMC8149375
# Key:
# Conditions in all cases: treatment: drug alone; 5 days
# 769-P [1] = test: GI50, drug alone; higher = less potent
# Experimental: (§1)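 Primary HTS: 8 RCC cell lines treated with 8 doses (up to 10 uM) of each library drug alone for 5 days; viability read by CellTiter-Glo and normalised to DMSO. GI50 was fitted with XLfit (4-parameter), AUC is the area under the dose-response curve, and minimum viability is the lowest fraction of DMSO viability across doses.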
# 786-O [2] = test: GI50, drug alone; higher = less potent
# Experimental: as §1
# A498 [3] = test: GI50, drug alone; higher = less potent
# Experimental: as §1
# ACHN [4] = test: GI50, drug alone; higher = less potent
# Experimental: as §1
# CAKI-1 [5] = test: GI50, drug alone; higher = less potent
# Experimental: as §1
# SN12C [6] = test: GI50, drug alone; higher = less potent
# Experimental: as §1
# TK-10 [7] = test: GI50, drug alone; higher = less potent
# Experimental: as §1
# UO-31 [8] = test: GI50, drug alone; higher = less potent
# Experimental: as §1
# 769-P [9] = test: minimum viability across doses, drug alone, relative to DMSO (fraction); higher = less growth inhibition
# Experimental: as §1
# 786-O [10] = test: as above
# Experimental: as §1
# A498 [11] = test: as above
# Experimental: as §1
# ACHN [12] = test: as above
# Experimental: as §1
# CAKI-1 [13] = test: as above
# Experimental: as §1
# SN12C [14] = test: as above
# Experimental: as §1
# TK-10 [15] = test: as above
# Experimental: as §1
# UO-31 [16] = test: as above
# Experimental: as §1
# 769-P [17] = test: AUC of dose-response viability curve, drug alone (arbitrary (AUC of normalised viability)); higher = less growth inhibition
# Experimental: as §1
# 786-O [18] = test: as above
# Experimental: as §1
# A498 [19] = test: as above
# Experimental: as §1
# ACHN [20] = test: as above
# Experimental: as §1
# CAKI-1 [21] = test: as above
# Experimental: as §1
# SN12C [22] = test: as above
# Experimental: as §1
# TK-10 [23] = test: as above
# Experimental: as §1
# UO-31 [24] = test: as above
# Experimental: as §1
SMILES,"GI50, drug alone (786-O [2])","GI50, drug alone (ACHN [4])","GI50, drug alone (769-P [1])","GI50, drug alone (A498 [3])","GI50, drug alone (CAKI-1 [5])","GI50, drug alone (SN12C [6])","GI50, drug alone (TK-10 [7])","GI50, drug alone (UO-31 [8])",minimum viability across doses (769-P [9]),minimum viability across doses (786-O [10]),minimum viability across doses (A498 [11]),minimum viability across doses (ACHN [12]),minimum viability across doses (CAKI-1 [13]),minimum viability across doses (SN12C [14]),minimum viability across doses (TK-10 [15]),minimum viability across doses (UO-31 [16]),AUC of dose-response viability curve (769-P [17]),AUC of dose-response viability curve (786-O [18]),AUC of dose-response viability curve (A498 [19]),AUC of dose-response viability curve (ACHN [20]),AUC of dose-response viability curve (CAKI-1 [21]),AUC of dose-response viability curve (SN12C [22]),AUC of dose-response viability curve (TK-10 [23]),AUC of dose-response viability curve (UO-31 [24])
Cc1cc(C)c(/C=C2\C(=O)Nc3ccccc32)[nH]1 [Semaxanib (SU5416)],> 10 µM,> 10 µM,> 10 µM,> 10 µM,> 10 µM,> 10 µM,> 10 µM,> 10 µM,0.892,0.778,0.97,0.76,0.902,0.911,0.778,0.928,3.45,3.12,3.76,2.92,3.45,3.42,3.2,4.68
Cc1[nH]c(/C=C2\C(=O)Nc3ccccc32)c(C)c1CCC(=O)O [TSU-68],> 10 µM,> 10 µM,> 10 µM,> 10 µM,> 10 µM,> 10 µM,> 10 µM,> 10 µM,0.887,0.786,0.884,0.752,0.903,0.882,0.855,0.879,3.3,3.1,3.71,3.12,3.34,3.41,3.26,2.36
CNC(=O)c1cccc(-c2ccc3c(N4CCOC[C@@H]4C)nc(N4CCOC[C@@H]4C)nc3n2)c1 [AZD2014],0.0236 µM,0.12 µM,0.573 µM,0.936 µM,0.246 µM,0.364 µM,0.145 µM,0.135 µM,0.0959,0.0673,0.229,0.0767,0.0604,0.177,0.108,0.0166,2.29,1.18,2.91,1.61,1.86,2.12,1.67,1.88
Cn1cc(-c2ccc3nnc(C(F)(F)c4ccc5ncccc5c4)n3n2)cn1,> 10 µM,> 10 µM,> 10 µM,> 10 µM,> 10 µM,> 10 µM,> 10 µM,> 10 µM,0.868,0.862,1.05,0.792,0.59,0.93,0.799,1.12,3.38,3.59,4.15,3.24,2.4,3.44,3.33,4.62
CS(=O)(=O)CCNCc1ccc(-c2ccc3ncnc(Nc4ccc(OCc5cccc(F)c5)c(Cl)c4)c3c2)o1.Cc1ccc(S(=O)(=O)O)cc1.Cc1ccc(S(=O)(=O)O)cc1 [Lapatinib Ditosylate (Tykerb)],> 10 µM,5.29 µM,7.1 µM,> 10 µM,9.61 µM,> 10 µM,3.78 µM,> 10 µM,0.455,0.471,0.929,0.419,0.48,0.734,0.39,1.05,2.86,2.9,3.99,2.78,3.24,3.16,2.51,4.64
O=C(NOC[C@H](O)CO)c1ccc(F)c(F)c1Nc1ccc(I)cc1F,0.221 µM,0.857 µM,0.928 µM,3.71 µM,0.32 µM,2.34 µM,0.848 µM,3.24 µM,0.282,0.373,0.455,0.359,0.161,0.389,0.348,0.257,2.27,1.88,2.54,2.15,1.95,2.31,2.1,2.63
C[C@@H](Oc1cc(-c2cnn(C3CCNCC3)c2)cnc1N)c1c(Cl)ccc(F)c1Cl,1.84 µM,4.03 µM,6.06 µM,9.41 µM,4.01 µM,2.43 µM,5.34 µM,4.17 µM,0.117,0.0211,0.346,0.225,0.0408,0.154,0.239,0.169,3.14,2.67,3.48,3.07,3.06,2.68,3.23,3.1
CNC(=O)c1nn(C)c2c1C(C)(C)Cc1cnc(Nc3ccc(N4CCN(C)CC4)cc3)nc1-2,0.366 µM,0.0953 µM,1 µM,4.8 µM,0.174 µM,0.957 µM,0.311 µM,1.33 µM,0.0249,0.00535,0.0273,0.0129,0.0591,0.0145,0.177,0.0155,2.48,2.22,3.76,1.53,1.81,2.54,2.06,2.64

# More lines, main results first:
"GI50, drug alone (786-O [2])","GI50, drug alone (ACHN [4])",SMILES,"GI50, drug alone (769-P [1])","GI50, drug alone (A498 [3])","GI50, drug alone (CAKI-1 [5])","GI50, drug alone (SN12C [6])","GI50, drug alone (TK-10 [7])","GI50, drug alone (UO-31 [8])",minimum viability across doses (769-P [9]),minimum viability across doses (786-O [10]),minimum viability across doses (A498 [11]),minimum viability across doses (ACHN [12]),minimum viability across doses (CAKI-1 [13]),minimum viability across doses (SN12C [14]),minimum viability across doses (TK-10 [15]),minimum viability across doses (UO-31 [16]),AUC of dose-response viability curve (769-P [17]),AUC of dose-response viability curve (786-O [18]),AUC of dose-response viability curve (A498 [19]),AUC of dose-response viability curve (ACHN [20]),AUC of dose-response viability curve (CAKI-1 [21]),AUC of dose-response viability curve (SN12C [22]),AUC of dose-response viability curve (TK-10 [23]),AUC of dose-response viability curve (UO-31 [24])
0.0551 µM,0.0331 µM,CCC(=O)N1CCN(c2ccc(-n3c(=O)ccc4cnc5ccc(-c6cnc7ccccc7c6)cc5c43)cc2C(F)(F)F)CC1 [Torin 1],0.0719 µM,0.0888 µM,0.057 µM,0.0872 µM,> 10 µM,0.0767 µM,0.101,0.0473,0.0183,0.0432,0.0409,0.127,0.116,0.00725,1.54,1.39,1.81,1.13,1.32,1.56,1.33,1.71
2.9 µM,0.303 µM,CC(O)C(=O)O.CC(O)C(=O)O.CN1CCN(c2ccc3nc(-c4c(N)c5c(F)cccc5[nH]c4=O)[nH]c3c2)CC1 [Dovitinib Dilactic acid (TKI258 Dilactic acid)],3.05 µM,> 10 µM,0.43 µM,1.16 µM,3.16 µM,6.52 µM,0.034,0.191,0.494,0.107,0.0485,0.0691,0.304,0.342,3.15,2.9,4.64,2,2.21,2.38,2.61,4.66
0.159 µM,0.725 µM,"Cc1cc(Nc2cc(N3CCN(C)CC3)nc(Sc3ccc(NC(=O)C4CC4)cc3)n2)n[nH]1 [VX-680 (MK-0457, Tozasertib)]",2.93 µM,3.2 µM,1.25 µM,1.48 µM,> 10 µM,> 10 µM,0.386,0.133,0.254,0.214,0.241,0.2,0.548,0.577,2.67,1.85,3.1,2.35,2.54,2.57,2.96,3.24
5.49 µM,1.16 µM,COc1cc2ncnc(Nc3cccc(Cl)c3)c2cc1OC [AG-1478 (Tyrphostin AG-1478)],3.24 µM,> 10 µM,> 10 µM,> 10 µM,2.85 µM,> 10 µM,0.481,0.179,1.01,0.37,0.628,0.813,0.472,0.795,2.48,2.32,4.85,2.24,2.91,2.95,2.36,4.04
> 10 µM,> 10 µM,Cn1cc(-c2ccc3nnc(Sc4ccc5ncccc5c4)n3n2)cn1 [SGX-523],> 10 µM,> 10 µM,> 10 µM,> 10 µM,> 10 µM,> 10 µM,0.776,0.56,0.855,0.725,0.806,0.746,0.775,1.01,3.22,2.77,3.75,3.23,3.18,3.21,3.06,3.83
0.0243 µM,0.0508 µM,COc1cc2ncnc(Nc3ccc(F)c(Cl)c3)c2cc1NC(=O)/C=C/CN1CCCCC1,0.21 µM,3 µM,1.3 µM,1.36 µM,0.146 µM,2.82 µM,0.0108,0.0062,0.0166,0.00434,0.00809,0.00743,0.0112,0.0173,1.85,1.39,3.2,1.4,2.17,2.09,1.7,2.7
> 10 µM,6.95 µM,O=C1C(=O)N(Cc2ccc(Cl)c(Cl)c2)c2ccccc21 [Apoptosis Activator 2],> 10 µM,> 10 µM,7.68 µM,4.98 µM,8.15 µM,> 10 µM,0.654,0.00355,0.506,0.339,0.342,0.193,0.439,0.818,3.51,1.07,4.06,2.87,3.53,2.93,2.82,4.31
0.539 µM,1.67 µM,O=C1NCCc2[nH]c(-c3ccncc3)cc21,> 10 µM,3.53 µM,4.96 µM,3.68 µM,3.62 µM,2.46 µM,0.75,0.00414,0.0125,0.0193,0.12,0.0279,0.188,0.00654,3.24,2.22,3.22,2.7,3.31,3.27,2.88,3.43
6.69 µM,0.582 µM,COc1cc2ncnc(Nc3cccc(Br)c3)c2cc1OC.Cl,1.49 µM,> 10 µM,8.68 µM,> 10 µM,1.36 µM,6.95 µM,0.357,0.00889,0.923,0.268,0.378,0.825,0.181,0.0153,2.36,2.81,4.63,2.07,2.92,3.17,2.36,4.18
0.746 µM,7.46 µM,CC(=O)Nc1nc(C)c(-c2ccc(Cl)c(S(=O)(=O)NCCO)c2)s1 [PIK-93],> 10 µM,> 10 µM,5.07 µM,8.03 µM,8.01 µM,> 10 µM,0.565,0.202,0.8,0.408,0.287,0.434,0.377,1.15,3.19,1.86,4.19,3.14,3.11,2.98,2.74,4.68
